The record followed here is patent US4397839A, “Surface active material and process for preparing same” (Tokyo Tanabe Company, Limited, priority 1981, dated 1983).

In this assay the test system is mature rabbits suffering from septicemia induced by Escherichia coli, complicated by RDS. The class given is in vivo, rabbit. On the procedure:
Specifically, 32 rabbits in the abovedescribed morbid state were divided into 4 groups including one control (or no-treatment) group. […] Then, all groups were comparatively examined for the degree of improvement in respiratory function. The morbid rabbits were prepared and the degree of lung injury was evaluated according to the methods of Cuevas et al. (Archives of Surgery, 104, 319, 1972), and the circulating titer of endotoxin in blood was determined according to the method of Reinhold et al. (Proceedings of the Society for Experimental Biology and Medicine, 137, 334, 1971). The treatment with the material of the invention and/or kanamycin sulfate was carried out within 24 hours before and after the onset of RDS. The material of the invention was instilled 1-6 times into the airway in a dose of 50-100 mg/kg for each treatment, while 80-150 mg/kg of kanamycin sulfate was intramuscularly injected in 2-8 divided doses. Two days after treatment, the subjects were examined for survival and the degree of lung injury. […] The degree of lung injury becomes severer as the value increases.

Molecules are shown by their SMILES. “And” between values parts separate entries of the source, which are not always exact repeats. Identical values can stand only once. Counter-ions that a name gives are not always drawn.

As for `NC[C@H]1O[C@H](O[C@H]2[C@H](O)[C@@H](O[C@H]3O[C@H](CO)[C@@H](O)[C@H](N)[C@H]3O)[C@H](N)C[C@@H]2N)[C@H](O)[C@@H](O)[C@@H]1O` [kanamycin sulfate], the “Circulating titer (endotoxin in blood)” value (individual animals (one line per subject)) is 0.10 µg/mL and 0.01 µg/mL and 0.00 µg/mL and 0.40 µg/mL and 0.02 µg/mL. Where the note is “individual animals, two days after treatment”, the Survival result is “No and Yes”. Moreover, the “Degree of lung injury” value (individual animals, two days after treatment, severer as the value increases) was 3 and 0 and 1 and 2.
